From patent US20030170643A1, “Regulation of apoB treatment and drug screening for cardiovascular and metabolic disorders or syndromes” (priority 1999, published 2003) come the findings set out here.

For this assay, the system named is rat primary hepatocytes. The assay is described as follows: Secretion of newly synthesized ([35S]methionine-labeled) VLDL-apoproteins by rat primary hepatocytes incubated with fatty acid/BSA complexes. The class given is cell-based. The conditions noted are these: fatty acid/BSA complexes (0.8 mM FA), VLDL fraction. The protocol:
Cells were plated at a density of 2×10^6 cells/ml on 60-mm culture dishes (previously coated with poly-D-lysine) in modified M199 medium (M199, 1% fetal bovine serum [FBS], 1 mM nicotinamide, 0.1 nM insulin, 3 mg/ml choline, 1.1% L-glutamine, 1% BSA). After a four-hour attachment period, the medium was changed (modified M199 identical to the above except BSA was omitted and the concentration of FBS was raised to 10%). The next morning, cells were washed in serum-free medium three times, the experimental media added, and the cells incubated at 37° C. for 4-6 hours. The experimental medium consisted of serum-free RPMI containing the appropriate isotopes (see below) and fatty acids (FA) present at a final concentration of 0.8 mM complexed to BSA (FA:BSA molar ratio=5:1). The fatty acids used were oleic (OA), EPA, and DHA. Control medium was identical, except that BSA (0.16 mM) without fatty acids was present. For metabolic labeling of proteins, [^35S]methionine (70 uCi/ml) was included in the experimental media.
Following the 4-6 hour incubation period, the cell monolayer was washed, then solubilized in 0.1 M NaOH, and the cell protein determined by the Lowry method (Lowry, O. H., Rosebrough, N. J., Farr, A. L., and Randall, R. J. (1951) J Biol Chem 193, 265-75). Each 60 mm dish contained approximately 1-1.5 mg of cell protein. The secreted apoproteins were isolated from the medium either by ultracentrifugation or immunoprecipitation. To isolate the d<1.006 (VLDL) and 1.006<d<1.063 (IDL and LDL) g/ml density classes by centrifugation, sequential 20 hour runs at 48,000 rpm in a 50 Ti Beckman rotor at 4° C. were performed. After the first run at d=1.006, the upper VLDL layer was harvested and the density of the infranatant adjusted to 1.066 g/ml with solid KBr. After being overlaid with a KBr solution of density 1.063, the adjusted infranatant was re-centrifuged as before to isolate the IDL and LDL fractions. In some experiments, the HDL fraction (1.063<d<1.21) was isolated by sequential density centrifugation. Lipoprotein fractions were then dialyzed against 0.9% NaCl containing 10 mM unlabeled methionine, 0.2 mM PMSF, and 2 mM EDTA. Dialyzed lipoproteins were delipidated using 9 volumes of 100% isopropanol. Apoproteins were then collected by centrifugation in a Sorval HB-4 rotor at 10,000 rpm and 4° C. for 20 min, and dissolved in buffer (0.01 M phosphate, pH 7,1 % SDS, 10% glycerol), in preparation for electrophoresis.
To immunoprecipitate apoB or apoE from unfractionated conditioned medium, monospecific rabbit antiserum to rat apoB or apoE was used. Briefly, an aliquot of the medium was mixed with an equal volume of diluted antiserum (1:100 in PBS and 1% BSA) and incubated overnight at 4° C. Staph A was added in the form of immunoprecipitin, and the resultant precipitate containing the immune complexes was washed extensively, the staph A cells removed, and the isolated apoprotein dissolved in gel sample buffer (0.0625M tris/Cl, pH 6.8, 20% glycerol, 2% SDS). Electrophoretic separation of apoVLDL, apoIDL/LDL, and immunoprecipitates was accomplished using 3.5% acrylamide-18% glycerol gels as described (Maguire, G. F., Lee, M., and Connelly, P. W. (1989) J Lipid Res 30, 757-61). An aliquot of each sample was taken for scintillation counting, so that total radioactivity applied to each lane could be determined. Also, protein size standards were included in each gel.
After electrophoresis, the gels were stained, fixed, soaked in Enhance fluor solution, and dried following protocols supplied by the manufacturer. Dried gels were then exposed to X-ray film at −70° C. and signals on the resulting fluorograms were typically quantified by densitometry or phosphorimaging. Using the total radioactivity applied to each lane of the gel and the relative signal intensity of each band in that lane, the radioactivity associated with each apoprotein species was calculated. […]

SMILES strings stand for the structures.

For the molecule `CCCCCCCC/C=C\CCCCCCCC(=O)O` [OA, oleic acid], the “secretion of newly synthesized VLDL-ApoB48, percentage of secretion observed with BSA alone” value was found to be 132 ± 11 percentage; the “secretion of newly synthesized VLDL-ApoB100, percentage of secretion observed with BSA alone” value stood at 96 ± 4 percentage; the “secretion of newly synthesized VLDL-ApoE, percentage of secretion observed with BSA alone” value turned out to be 84 ± 3 percentage.
